Columns and labels:
Pdr5p = Pdr5p (Saccharomyces cerevisiae, UniProt P33302); details: Kolaczkowski et al. 1996, 1998; cited from earlier work
HmPDR1 = assay: Quantitative RT-PCR of HmPDR1 expression in hairy roots; assay type: cell-based, Hyoscyamus muticus; details: 1 mM CdCl2, H2O as a control
Experimental: FIG. 3: HmPDR1 expression is induced by CdCl2. Quantitative RT-PCR analysis of HmPDR1 in total RNA from H. muticus hairy roots treated with 1 mM CdCl2 or H2O as a control. Ethidium bromide-stained rRNA is used as a control. The fold increase in the ratio of HmPDR1 transcript to rRNA fluorescence, relative to the value at time point zero, is given below the panels. Time after elicitation is indicated in hours.
To confirm the postulated relationship between the expression of ABC transporter genes and the CdCl2 induced release of alkaloids we performed an expression analysis of the HmPDR1 gene in CdCl2 treated Hyoscyamus hairy roots (FIG. 3).

[1] = system: BY-2 cell lines expressing the different yeast Pdr5 transporters; details: compared to the control GUS-expressing lines
wild type yeast = details: YPD plates, growth evaluated after two days at 28° C.
Wild type BY-2 cells = details: MSST plates, growth evaluated after 15 days at 26° C.
[2] = system: yeast AD3 strain expressing AtPDR1; details: YPD plates containing the alkaloid
tobacco BY-2 cells = details: Nicotiana tabacum
[3] = system: Transgenic BY-2 cells expressing AtPDR1; details: compared to the control GUS expressing line
[4] = system: BY-2 cells transformed with pK7WGD2-ScPDR5-US50; assay: Hyoscyamine-induced cell death (Evans blue) in the ScPDR5-US50 line; assay type: cell-based, Nicotiana tabacum; details: 30 mM hyoscyamine, US50 lines compared to GUS control line
Experimental: FIG. 2: Hyoscyamine-induced cell death in transformed BY-2 cells. […] Cell death was assayed at two time points (6 hours and 24 hours) by Evans blue staining and is indicated as the fold increase in optical density at OD600 relative to the value at the start of the experiment. Values are the mean of three independent experiments. GUS, US50, W303 and AT represent BY-2 cell lines transformed with pK7WGD2-GUS, pK7WGD2-ScPDR5-US50, pK7WGD2-ScPDR5-W303 and pK7WGD2-AtPDR1 respectively.

Sequence of Pdr5p (P33302 whole entry): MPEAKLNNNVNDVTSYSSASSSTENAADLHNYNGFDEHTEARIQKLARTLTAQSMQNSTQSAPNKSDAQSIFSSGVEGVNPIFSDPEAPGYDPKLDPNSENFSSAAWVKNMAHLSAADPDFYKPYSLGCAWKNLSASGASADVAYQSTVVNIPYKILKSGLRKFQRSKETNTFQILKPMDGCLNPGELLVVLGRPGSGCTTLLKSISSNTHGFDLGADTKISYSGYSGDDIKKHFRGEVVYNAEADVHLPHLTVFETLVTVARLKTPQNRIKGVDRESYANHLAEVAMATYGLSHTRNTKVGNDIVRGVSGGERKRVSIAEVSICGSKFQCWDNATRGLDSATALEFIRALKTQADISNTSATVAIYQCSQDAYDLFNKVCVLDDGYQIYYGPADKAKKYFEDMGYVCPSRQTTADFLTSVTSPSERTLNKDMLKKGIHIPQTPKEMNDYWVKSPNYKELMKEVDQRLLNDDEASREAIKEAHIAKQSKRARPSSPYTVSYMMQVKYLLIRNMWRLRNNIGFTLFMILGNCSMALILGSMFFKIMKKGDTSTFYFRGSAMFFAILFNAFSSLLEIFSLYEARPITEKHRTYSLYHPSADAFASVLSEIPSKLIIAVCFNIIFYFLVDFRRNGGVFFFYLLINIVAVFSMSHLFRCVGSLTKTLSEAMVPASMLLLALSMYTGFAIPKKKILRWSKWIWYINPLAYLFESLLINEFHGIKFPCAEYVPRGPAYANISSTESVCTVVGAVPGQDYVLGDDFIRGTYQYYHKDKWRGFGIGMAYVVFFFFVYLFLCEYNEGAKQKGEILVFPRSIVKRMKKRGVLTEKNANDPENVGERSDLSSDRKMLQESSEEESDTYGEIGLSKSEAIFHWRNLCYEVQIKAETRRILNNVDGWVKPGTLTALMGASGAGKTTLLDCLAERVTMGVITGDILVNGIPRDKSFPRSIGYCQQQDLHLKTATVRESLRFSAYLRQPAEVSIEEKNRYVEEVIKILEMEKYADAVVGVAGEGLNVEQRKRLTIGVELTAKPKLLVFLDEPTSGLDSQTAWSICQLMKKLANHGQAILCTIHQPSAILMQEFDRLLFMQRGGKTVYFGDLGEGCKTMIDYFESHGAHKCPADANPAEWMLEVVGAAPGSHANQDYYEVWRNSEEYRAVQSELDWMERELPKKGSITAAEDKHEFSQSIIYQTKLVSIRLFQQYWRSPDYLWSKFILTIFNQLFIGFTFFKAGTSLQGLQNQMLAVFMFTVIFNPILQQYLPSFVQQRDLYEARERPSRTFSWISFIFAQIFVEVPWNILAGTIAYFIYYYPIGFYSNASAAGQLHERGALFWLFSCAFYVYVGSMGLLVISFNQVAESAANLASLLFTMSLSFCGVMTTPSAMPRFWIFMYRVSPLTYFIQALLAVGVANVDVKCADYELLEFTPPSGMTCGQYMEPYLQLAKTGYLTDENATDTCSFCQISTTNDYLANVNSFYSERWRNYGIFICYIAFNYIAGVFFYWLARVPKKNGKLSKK

Structure (SMILES): CC[C@]1(O)C[C@@H]2CN(CCc3c([nH]c4ccccc34)[C@@](C(=O)OC)(c3cc4c(cc3OC)N(C)[C@H]3[C@@](O)(C(=O)OC)[C@H](OC(C)=O)[C@]5(CC)C=CCN6CC[C@]43[C@@H]65)C2)C1 [vinblastine]
- substrate for Pdr5p mediated multidrug transport (Pdr5p): substrates

Structure (SMILES): CC[C@]1(O)C[C@H]2CN(CCc3c([nH]c4ccccc34)[C@@](C(=O)OC)(c3cc4c(cc3OC)N(C=O)[C@H]3[C@@](O)(C(=O)OC)[C@H](OC(C)=O)[C@]5(CC)C=CCN6CC[C@]43[C@@H]65)C2)C1 [vincristine]
- substrate for Pdr5p mediated multidrug transport (Pdr5p): substrates

Structure (SMILES): [Cl][Cd][Cl] [CdCl2]
- HmPDR1 expression (HmPDR1): upregulated

Structure (SMILES): CC(=O)O[C@H]1C(=O)[C@@]2(C)[C@H]([C@H](OC(=O)c3ccccc3)[C@]3(O)C[C@H](OC(=O)[C@H](O)[C@@H](NC(=O)c4ccccc4)c4ccccc4)C(C)=C1C3(C)C)[C@]1(OC(C)=O)CO[C@@H]1C[C@@H]2O [taxol]
- substrate for Pdr5p mediated multidrug transport (Pdr5p): substrates

Structure (SMILES): CN1CCCC1c1cccnc1 (stereo not drawn) [nicotine]
- tolerance in growth performance assay [1]: increased tolerance
- level tolerated by wild type yeast (wild type yeast): 15 mM
- level tolerated without severe growth problems (Wild type BY-2 cells): 3000 µM
- growth of the pdr5 mutant strain expressing AtPDR1 on the alkaloid [2]: restore the growth
- level causing the death of all suspension cultured tobacco cells (tobacco BY-2 cells): 20000 µM
- tolerance of AtPDR1 transgenic BY-2 cells [3]: enhanced tolerance

Structure (SMILES): CN1[C@@H]2CC[C@H]1C[C@@H](OC(=O)[C@H](CO)c1ccccc1)C2 [hyoscyamine]
- level tolerated by wild type yeast (wild type yeast): 50 mM
- level tolerated without severe growth problems (Wild type BY-2 cells): 30000 µM
- level causing the death of all suspension cultured tobacco cells (tobacco BY-2 cells): 50000 µM
- decrease in hyoscyamine induced cell death [4]: 15%

Structure (SMILES): CN1[C@@H]2C[C@@H](OC(=O)[C@H](CO)c3ccccc3)C[C@H]1[C@@H]1O[C@@H]12 [scopolamine]
- level tolerated by wild type yeast (wild type yeast): 100 mM
